Here are results for six compounds from patent US11180504B2 (ORCHID PHARMA LTD., priority 2016, dated 2021).

In brackets after ≈: the same amount, converted by molar mass. Where two headings read alike, the source gives them in different places.

For assay [1], the system named is methicillin-sensitive Staphylococcus aureus. Put plainly: MIC by broth micro-dilution (CLSI), methicillin-sensitive S. aureus. The following applies: MSSA S. aureus ATCC29213. It counts as cell-based.
Assay [2] concerns carbapenem sensitive Pseudomonas aeruginosa. Put plainly: MIC by broth micro-dilution (CLSI), carbapenem sensitive P. aeruginosa. It counts as cell-based. On the technique in general: Broth dilution looks for growth in wells or tubes with falling amounts of substance.
Assay [3] relates to carbapenemase producing K. pneumoniae. Put plainly: MIC by broth micro-dilution (CLSI), carbapenemase producing K. pneumoniae. It counts as cell-based, Klebsiella pneumoniae.
Assay [4] relates to carbapenem sensitive Escherichia coli. Put plainly: MIC by broth micro-dilution (CLSI), carbapenem sensitive E. coli. It is filed as cell-based.
Where [5] appears, read: Staphylococcus aureus, ATCC 29213 / MSSA, read-out: MIC.
Where [6] appears, read: Pseudomonas aeruginosa, ATCC27853, Meropenem susceptible P. aeruginosa ATCC27853, read-out: MIC.
Setting [7] is: Klebsiella pneumoniae, ATCCBAA1705, KPC-2 K. pneumoniae ATCC BAA-1705, read-out: MIC.
Setting [8] is: Escherichia coli, ATCC25922, ESBL −ve E. coli ATCC25922, read-out: MIC.

What is called MIC is the lowest concentration that inhibits growth of the organism. In the case of `C[C@@H](NC(=O)Cn1cnnn1)[C@H]1C(=O)N2C(C(=O)O)=C(S[C@@H]3CN[C@H](C(=O)N4C[C@H](N)[C@@H](O)[C@H]4CO)C3)[C@H](C)[C@H]12` [Example 549, (4R,5S,6R)-6-((R)-1-(2-(1H-tetrazol-1-yl)acetamido)ethyl)-3-((3S,5S)-5-((2R,3R,4S)-4-amino-3-hydroxy-2-(hydroxymethyl)pyrrolidine-1-carbonyl)pyrrolidin-3-ylthio)-4-methyl-7-oxo-1-azabicyclo[3.2.0]hept-2-ene-2-carboxylic acid], the MIC in assay [1] (setting [5]) stood at 4 µg/mL (≈ 6.9 µM); in assay [2] (setting [6]), 1 µg/mL (≈ 1.73 µM); in assay [3] (setting [7]), 1 µg/mL (≈ 1.73 µM); in assay [4] (setting [8]), 0.125 µg/mL (≈ 0.216 µM).
Turning to `C[C@@H](NC(=O)Cn1cnnn1)[C@H]1C(=O)N2C(C(=O)O)=C(S[C@@H]3CN[C@H](C(=N)N4CC[C@@H](N)C4)C3)[C@H](C)[C@H]12` [Example 550], the MIC was found to be 1 µg/mL (≈ 1.88 µM) in assay [1] (Staphylococcus aureus, ATCC29213|MSSA, read-out: MIC); 8 µg/mL (≈ 15 µM) in assay [2] (setting [6]); 2 µg/mL (≈ 3.75 µM) in assay [3] (setting [7]); 0.25 µg/mL (≈ 0.469 µM) in assay [4] (setting [8]).
For the compound `C[C@@H](NC(=O)Cn1cnnn1)[C@H]1C(=O)N2C(C(=O)O)=C(S[C@@H]3CN[C@H](C(=O)N4CC[C@@H](N)[C@H](O)C4)C3)[C@H](C)[C@H]12` [Example 553, (4R,5S,6R)-6-((R)-1-(2-(1H-tetrazol-1-yl)acetamido)ethyl)-3-((3S,5S)-5-((3R,4R)-4-amino-3-hydroxypiperidine-1-carbonyl)pyrrolidin-3-ylthio)-4-methyl-7-oxo-1-azabicyclo[3.2.0]hept-2-ene-2-carboxylic acid], the MIC in assay [1] (setting [5]) is 2 µg/mL (≈ 3.55 µM); in assay [2] (setting [6]) it was 2 µg/mL (≈ 3.55 µM); in assay [3] (setting [7]) it was 1 µg/mL (≈ 1.77 µM); in assay [4] (setting [8]), 0.25 µg/mL (≈ 0.444 µM).
For `C[C@@H](NC(=O)Cn1cnnn1)[C@H]1C(=O)N2C(C(=O)O)=C(S[C@@H]3CN[C@H](C(=O)N4CC[C@H](N)[C@@H](O)C4)C3)[C@H](C)[C@H]12` [Example 554, (4R,5S,6R)-6-((R)-1-(2-(1H-tetrazol-1-yl)acetamido)ethyl)-3-((3S,5S)-5-((3S,4S)-4-amino-3-hydroxypiperidine-1-carbonyl)-pyrrolidin-3-ylthio)-4-methyl-7-oxo-1-azabicyclo[3.2.0]hept-2-ene-2-carboxylic acid], the MIC came out at 4 µg/mL (≈ 7.1 µM) in assay [1] (setting [5]), 2 µg/mL (≈ 3.55 µM) in assay [2] (setting [6]), 2 µg/mL (≈ 3.55 µM) in assay [3] (setting [7]) and 0.5 µg/mL (≈ 0.887 µM) in assay [4] (setting [8]).
Take `C[C@@H](NC(=O)Cn1cnnn1)[C@H]1C(=O)N2C(C(=O)O)=C(S[C@@H]3CN[C@H](C(=O)N4CCC5CNCC5(C(=O)O)C4)C3)[C@H](C)[C@H]12` (stereo partly drawn) [Example 562, 5-((2S,4S)-4-((4R,5S,6R)-6-((R)-1-(2-(1H-tetrazol-1-yl)acetamido)ethyl)-2-carboxy-4-methyl-7-oxo-1-azabicyclo[3.2.0]hept-2-en-3-yl-thio)pyrrolidine-2-carbonyl)octahydro-1H-pyrrolo[3,4-c]pyridine-3a-carboxylic acid]: the MIC in assay [1] (setting [5]) was determined as 16 µg/mL (≈ 25.9 µM); in assay [2] (setting [6]), 2 µg/mL (≈ 3.24 µM); in assay [3] (setting [7]), 2 µg/mL (≈ 3.24 µM); in assay [4] (setting [8]) it was 0.5 µg/mL (≈ 0.809 µM).
With `C[C@@H](NC(=O)Cn1cnnn1)[C@H]1C(=O)N2C(C(=O)O)=C(S[C@@H]3CN[C@H](C(=O)N4CCC5CNCC5(C(=O)O)C4)C3)[C@H](C)[C@H]12` (stereo partly drawn) [Example 563, 5-((2S,4S)-4-((4R,5S,6R)-6-((R)-1-(2-(1H-tetrazol-1-yl)acetamido)ethyl)-2-carboxy-4-methyl-7-oxo-1-azabicyclo[3.2.0]hept-2-en-3-yl-thio)pyrrolidine-2-carbonyl)octahydro-1H-pyrrolo[3,4-c]pyridine-3a-carboxylic acid], the MIC in assay [1] was 16 µg/mL (≈ 25.9 µM); in assay [2] (Meropenem susceptible P. aeruginosa ATCC27853) it was 2 µg/mL (≈ 3.24 µM); in assay [3] (KPC-2 K. pneumoniae ATCC BAA-1705), 2 µg/mL (≈ 3.24 µM); in assay [4] (ESBL −ve E. coli ATCC25922) it was 0.25 µg/mL (≈ 0.405 µM).
